Data on 16 compounds can be found in patent US8716289B2, “Carbamate derivatives of alkyl-heterocycles, preparation thereof and therapeutic use thereof” (Sanofi, priority 2008, dated 2014).

Series [1] addresses T1, enzyme FAAH (Fatty Acid Amide Hydrolase) (Mus musculus, UniProt O08914).
T1 construct: The membrane homogenates are prepared extemporaneously by homogenizing the tissues; from tissue; host or cells: mouse brain (minus the cerebellum), membrane homogenate
T1 sequence (O08914 1-579): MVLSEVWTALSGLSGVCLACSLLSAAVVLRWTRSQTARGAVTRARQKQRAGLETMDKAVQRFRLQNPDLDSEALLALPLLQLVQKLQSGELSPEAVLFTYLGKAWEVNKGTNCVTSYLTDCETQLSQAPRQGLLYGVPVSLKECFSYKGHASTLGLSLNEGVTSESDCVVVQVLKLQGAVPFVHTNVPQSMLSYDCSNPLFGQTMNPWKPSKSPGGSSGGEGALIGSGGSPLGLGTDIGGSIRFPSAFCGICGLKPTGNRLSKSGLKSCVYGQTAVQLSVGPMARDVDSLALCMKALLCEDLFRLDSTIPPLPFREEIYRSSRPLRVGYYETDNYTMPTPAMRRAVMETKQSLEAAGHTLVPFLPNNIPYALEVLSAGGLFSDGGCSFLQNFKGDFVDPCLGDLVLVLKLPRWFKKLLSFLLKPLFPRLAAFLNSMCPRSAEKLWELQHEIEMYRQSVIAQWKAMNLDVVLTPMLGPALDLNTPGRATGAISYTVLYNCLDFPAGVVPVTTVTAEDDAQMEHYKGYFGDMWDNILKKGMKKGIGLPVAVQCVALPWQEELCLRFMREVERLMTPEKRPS
As to the kind of experiment: FAAH radioenzymatic test, hydrolysis of anandamide [ethanolamine 1-3H] (Protocol 1). Format: biochemical. The settings on record: mouse brain membrane homogenate, anandamide 10 μM, preincubation 20 min at 25° C. The method, then:
Thus, mouse brains (minus the cerebellum) are removed and stored at −80° C. The membrane homogenates are prepared extemporaneously by homogenizing the tissues using a Precellys® machine in reaction buffer (10 mM Tris-HCl, pH=8, 150 mM NaCl and 1 mM ethylenediaminetetraacetic acid (EDTA)). The enzymatic reaction is performed in 96-well Multiscreen filtration plates in a final volume of 70 μL. Reaction buffer supplemented with fatty acid-free bovine serum albumin (BSA, 1 mg/ml) is used for the enzymatic reaction and the dilution of the compounds and of the anandamide [ethanolamine 1-^3H]. The reaction buffer containing BSA (43 μL/well), the diluted test compounds at different concentrations (7 μL/well containing 1% DMSO) and the membrane preparation (10 μL/well, i.e. […] of tissue per test) are successively added to the wells. After preincubation for 20 minutes of the compounds with the enzyme at 25° C., the reaction is started by adding anandamide [ethanolamine 1-^3H]. (Specific activity of 15-20 Ci/mmol) diluted with cold anandamide (10 μL/well, final concentration of 10 μM, 0.01 ρCi per test). After incubation for 20 minutes at 25° C., the enzymatic reaction is stopped by adding a […] solution of active charcoal prepared in 1.5M NaCl buffer and 0.5 M HCl (50 μL/well). The mixture is stirred for 10 minutes and the aqueous phase containing the ethanolamine [1-^3H] is then recovered by filtration under vacuum and counted by liquid scintillation.

Series [2] has as its target T1, enzyme FAAH (Fatty Acid Amide Hydrolase). As to the kind of experiment: FAAH fluorescent enzymatic test, hydrolysis of AAMC (Protocol 2). It counts as biochemical. The settings on record: mouse brain homogenate, AAMC 10 μM, preincubation 20 min at 25° C. The method, then:
Thus, mouse brains (minus the cerebellum) are withdrawn and stored at −80° C. The brain homogenates are prepared extemporaneously by homogenizing the tissues using a Precellys® machine in reaction buffer (10 mM Tris-HCl, pH=8, 150 mM NaCl and 1 mM ethylenediaminetetraacetic acid (EDTA)). The enzymatic reaction is performed in black polystyrene 384-well plates in a final volume of 50 μL. Reaction buffer supplemented with fatty acid-free bovine serum albumin (BSA, 1 mg/ml) is used for the enzymatic reaction, the dilution of the compounds and the dilution of the AAMC. Reaction buffer containing the BSA (25 μL/well), the diluted test compounds at different concentrations (5 μL/well containing 1% DMSO) and the membrane preparation (10 μL/well, i.e. 200 μg of tissue per test) are successively added to the wells. After preincubation for 20 minutes of the compounds with the enzyme at 25° C., the reaction is started by adding 10 μL of substrate per well (AAMC, final concentration of 10 μM). After incubation for 40 minutes, the aminomethyl coumarin (AMC) produced is measured by fluorescent counting (Envision plate reader).

For another series, the system named is male OF1 mice. As to the kind of experiment: test of analgesia: PBQ-induced abdominal stretching. It counts as in vivo, mouse. The settings on record: 30 mg/kg p.o. at 120 minutes. The method, then: The in vivo activity of the compounds of the invention was evaluated in a test of analgesia.
Thus, the intraperitoneal (i.p.) administration of PBQ (phenylbenzoquinone, 2 mg/kg in 0.9% sodium chloride solution containing 5% ethanol) to male OF1 mice weighing 25 to 30 g causes abdominal stretching, on average 30 torsions or contractions within a period of 5 to 15 minutes after injection. The test compounds are administered orally (p.o.) or intraperitoneally (i.p.) suspended in Tween 80 at 0.5%, 60 minutes or 120 minutes before the administration of PBQ. Under these conditions, the compounds of the invention that are the most powerful reduce by 30% to 80% the number of stretches induced with PBQ, over a dose range of between 1 and 30 mg/kg.

SMILES strings stand for the structures.

In the case of `Cn1ncnc1COC(=O)NCCC1CCN(c2ccc3cc(Cl)ccc3n2)CC1` [Compound 2, 2-methyl-2H-[1,2,4]triazol-3-ylmethyl 2-[1-(6-chloroquinolin-2-yl)piperidin-4-yl]ethylcarbamate], the melting point lay within 122 to 124 °C. Also, the IC50 in series [1] came out at 40 nM. The matching figures for `O=C(NCCC1CCN(c2ccc(-c3ccc(F)cc3)cn2)CC1)OCc1csnn1` [Compound 9, [1,2,3]thiadiazol-4-ylmethyl 2-[5′-(4-fluorophenyl)-3,4,5,6-tetrahydro-2H-[1,2′]bipyridinyl-4-yl]ethylcarbamate]: 139 to 141 °C and 2 nM.

Compound `NC(=O)c1cc(COC(=O)NCCC2CCN(c3ccc(-c4ccc(F)cc4)nn3)CC2)on1` [Compound 41] came in with a half-maximal inhibitory concentration (IC50) in series [1] of 0.6 nM. Compound `CN1CCN(C(=O)c2cc(COC(=O)NCCC3CCN(c4ccc(-c5ccc(F)cc5)cn4)CC3)on2)CC1` [Compound 46] registered a 50% inhibitory concentration (IC50) in series [1] of 16 nM. As to `O=C(NCCC1CCN(c2ccc3cc(Cl)ccc3n2)CC1)OCc1nnc(-c2ccc(F)cc2)o1` [Compound 12, 5-(4-fluorophenyl)[1,3,4]oxadiazol-2-ylmethyl 2-[1-(6-chloroquinolin-2-yl)piperidin-4-yl]ethylcarbamate], the melting point lay within 169 to 170 °C. The compound further showed an IC50 in series [1] of 47 nM. In turn, `CCc1noc(COC(=O)NCCC2CCN(c3ccc(-c4ccc(F)cc4)cn3)CC2)n1` [Compound 5, 3-ethyl[1,2,4]oxadiazol-5-ylmethyl 2-[5′-(4-fluorophenyl)-3,4,5,6-tetrahydro-2H-[1,2′]bipyridinyl-4-yl]-ethylcarbamate] had a melting point of 110 to 112 °C. This compound yielded a half-maximal inhibitory concentration (IC50) in series [1] of 2 nM. In the case of `CCC1(CCNC(=O)OCc2cc(C(=O)NC)no2)CCN(c2cnc3cc(Cl)ccc3n2)CC1` [Compound 64], the IC50 in series [1] amounted to 3 nM. This lies in the single-digit nanomolar range. Same read-out and setting: with `NC(=O)c1cc(COC(=O)NCCC2CCN(c3nccc(C(F)(F)F)n3)CC2)on1` [Compound 38] the figure was 2 nM.

For `CNC(=O)c1cc(COC(=O)NCCC2CCN(c3ccc(-c4ccc(F)cc4)cc3)CC2)on1` [Compound 29, 3-methylcarbamoylisoxazol-5-ylmethyl 2-[1-(4′-fluorobiphenyl-4-yl)piperidin-4-yl]ethylcarbamate], the melting point fell in the range of 212 to 215 °C. Also, the IC50 in series [2] stood at 0.7 nM.

For the compound `Cn1ccc(COC(=O)NCCCC2CCN(c3nccc(C(F)(F)F)n3)CC2)n1` [Compound 52], it took 28 nM to reach half-maximal inhibition in series [1] (IC50). This counts as double-digit nanomolar. `NC(=O)c1cc(COC(=O)NCCC2CCN(c3ccc4cc(Cl)ccc4n3)CC2)on1` [Compound 1, 3-carbamoylisoxazol-5-ylmethyl 2-[1-(6-chloroquinolin-2-yl)piperidin-4-yl]ethylcarbamate]: the melting point was in the range of 220 to 222 °C. In the series on male OF1 mice, the “reduction of the number of stretches induced with PBQ” value came out at 55%. The compound further showed an IC50 in series [1] of 1 nM. The matching figures for `NC(=O)c1cc(COC(=O)NCCC2CCN(c3ccc(-c4ccc(F)cc4)cn3)CC2)on1` [Compound 19, 3-carbamoylisoxazol-5-ylmethyl 2-[5′-(4-fluorophenyl)-3,4,5,6-tetrahydro-2H-[1,2′]bipyridinyl-4-yl]ethylcarbamate]: 202 to 204 °C, 30% and 1 nM. On to `CNC(=O)c1cc(COC(=O)NC2CCN(c3ccc([N+](=O)[O-])cc3C(F)(F)F)CC2)on1` [Compound 76, 3-methylcarbamoylisoxazol-5-ylmethyl [1-(4-nitro-2-trifluoromethylphenyl)piperidin-4-yl]carbamate], for which the melting point lay in the range of 156 to 158 °C. In the case of `CC(C)c1nc(COC(=O)NCC2CCN(c3nnc(Cl)c4ccccc34)CC2)no1` [Compound 59, 5-isopropyl[1,2,4]oxadiazol-3-ylmethyl [1-(4-chlorophthalazin-1-yl)piperidin-4-yl]methylcarbamate], the melting point is 139 to 141 °C. Same read-out and setting: the value for `CNC(=O)c1cc(COC(=O)NCC2(F)CCN(c3nccc(C(F)(F)F)n3)CC2)on1` [Compound 57, 3-methylcarbamoylisoxazol-5-ylmethyl [4-fluoro-1-(4-trifluoromethylpyrimidin-2-yl)piperidin-4-yl]methylcarbamate] was 187 to 189 °C; that for `CNC(=O)c1cc(COC(=O)NCCC2(C)CCN(c3nccc(C(F)(F)F)n3)CC2)on1` [Compound 72, 3-methylcarbamoylisoxazol-5-ylmethyl {2-[4-methyl-1-(4-trifluoromethylpyrimidin-2-yl)piperidin-4-yl]ethyl}carbamate] was 160 to 162 °C.
